Measurements as given in patent publication US10370404B2, “Protoescigenin derivative, process of its preparation, use of said compound and pharmaceutical composition comprising that compound” (Warszawski Uniwersytet Medyczny, priority 2015, dated 2019).

Key:
[1] = system: male Wistar rats with surgically created side-to-side arterio-venous fistula between common femoral vessels; assay: Rat arteriovenous fistula model of Parkes Weber syndrome: thigh circumference, muscle weight, femoral bone length; assay type: in vivo; conditions: sodium salt 10 mg/ml oral gavage, 4 weeks
Description: (§1) The below experiments were performed on male Wistar rats, at the age of 8-10 weeks, divided into two groups: the experimental group with surgically created side-to-side arterio-venous fistula between common femoral vessels (n=23) and a control group of un-operated animals (n=10). The experiment was approved by the local Bioethics Commission for experiments on animals, Warsaw 02-091, Żwirki i Wigury 61 (resolutions nr 11/2009 dated Jun. 23, 2009 and 46/12 dated Sep. 25, 2012).
Rats in experimental group were divided into two sub-groups, receiving no treatment (n=14) and receiving compound of the invention (n=9). Each animal was subjected to following surgical operations.
After induction of general anesthesia longitudinal skin incision just below inguinal ligament was performed. […] After application of micro-vascular clamps on common femoral vessels longitudinal 2 mm±0.1 mm long incision on antero-lateral side of the vein and antero-medial side of the artery were performed. Afterwards side-to-side anastomosis between common femoral vessels was performed to create arteriovenous fistula (non-absorbable monofilament suture 10/0). Subsequently micro-vascular clamps were removed and arteriovenous fistula patency was checked and haemostasis was achieved. […] The resultant vein lumen corresponded to approximately 80-90% of the initial vein lumen. Next, subcutaneous tissue and skin were sutured with absorbable suture.
The above procedure results in obtaining an animal model of Parkes Weber syndrome, described in the European patent application EP14001527. Hereinafter, these limbs are referred to as AVF limbs.
The operation of the right hind limb (control limb) included skin incision, common femoral vessels dissection, and subcutaneous and skin suture (absorbable suture). Hereinafter, these limbs are referred to as sham-operated limbs.
Animals were fed for 1 week, than surgical procedures were conducted. After the operation, animals were fed and treated with the compound of the invention.
(§2) The rats in sub-groups receiving compound of the invention were treated for 4 weeks with the compound of the invention (E-38) in form of sodium salt (10 mg/ml, 13.7 mM) administered by oral gavage.
(§3) After 4 weeks, rats were sacrificed and measurements were conducted. Non-operated rats were fed during the whole experiment. Blood samples for serum analysis were collected before the animals were sacrificed. […]
(§4) After euthanasia, measurements of thigh circumference limbs of animals of the experimental and control groups were performed. […] Femoral bones were excised and their length was measured with an electronic slide clipper.
(§5) The results were expressed as arithmetic means and standard errors of the mean (SEM). […]

[2] = system: Human Umbilical Vein Endothelial Cells (HUVEC); assay: HUVEC in vitro vascular permeability assay; assay type: cell-based; conditions: 2 μM for 24 h; rhTNF-α for the last 6 h
Description: (§6) Human Umbilical Vein Endothelial Cells (HUVEC) were cultured in the EBM-2 (Lonza) supplemented with endothelial growth supplement mix (EGM-2 SingleQuot Kit Supplements and Growth Factors, Lonza) and 2% foetal bovine serum under standard cell culture condition (37° C., 5% CO2). Cells were harvested using Accutase (PAA Laboratories). All described experiments were performed with cells of passage four from at least three donors. The cells were treated with the compound of the invention at 2 μM for 24 h with or without an additional of 6 h stimulation of recombinant human TNF-α (rhTNF-α, 10 ng/ml, R&D Systems).
The In Vitro Vascular Permeability Assay Kit (Chemicon) was used to determine HUVEC monolayer permeability. All the steps of the procedure were performed according to the manufacturer's instructions.
The In Vitro Vascular Permeability Assay Kit (Chemicon) was used to determine HUVEC monolayer permeability following 24 h treatment of the compound of the invention at 2 μM concentrations. The effect of rhTNF-α (R&D Systems), which was added to cell culture for the last 6 h of the incubation period, was also determined. The subsequent steps of the procedure were performed according to the manufacturer's instructions.

[3] = Biochemical analysis of the serum samples; assay type: in vivo, rat; conditions: control and experimental rats; sodium salt 10 mg/ml oral gavage, 4 weeks
Description: as §2
After 4 weeks, rats were sacrificed and measurements were conducted. Non-operated rats were fed during the whole experiment. Blood samples for serum analysis were collected before the animals were sacrificed. Biochemical analysis of the blood samples was conducted using biochemical analyzer Cobas 6000 (Roche, Hitachi).
In order to verify whether the administration of the compound of the invention results in any toxic effects influence in tested rats, the inventors conducted a set of basic biochemical tests of the serum isolated from the blood samples obtained from the control and experimental rats.
The conducted blood serum test included following parameters: glucose (GLUC), creatinin (CREA), urea (UREA), total protein (TP), uric acid (UA), amylase (AMYL), albumin (ALB), cholesterol (CHOL), triglicerides (TRIG), lipase (LIP), aspartate aminotransferase (AST), alanine aminotransferase (ALT), creatine kinase (CK).

[4] = system: male Wistar rats (un-operated control group); assay: Un-operated control rats: thigh circumference, muscle weight, femoral bone length; assay type: in vivo, rat; conditions: sodium salt 10 mg/ml oral gavage, 4 weeks
Description: as §1
Rats in the control group were also divided into two sub-groups, receiving no treatment (n=6) and receiving the compound of the invention (n=4). These animals were not subjected to any surgical procedure.
as §2, §3, §4, §5

[5] = system: Human Umbilical Vein Endothelial Cells (HUVEC); assay: HUVEC cell migration assay; assay type: cell-based; conditions: 2 μM; rhTNF-α 10 ng/ml
Description: as §6
The rate of cell migration was measured with the Angiogenesis System: Endothelial Cell Migration (BD Biosciences) strictly according to the manufacturer's instructions.
The rate of cell migration was measured with Angiogenesis System: Endothelial Cell Migration (BD Biosciences). Briefly, 90% confluent HUVEC were incubated with the compound of the invention at 2 μM concentration in a complete culture medium for 24 h, then starved for 4 h in a medium containing 0.1% serum. Following seeing on migration inserts ([…] in 250 μl of media containing the compound of the invention) HUVEC were stimulated with rhTNF-α (10 ng/ml, R&D Systems). […]

[6] = left hind (AVF) limbs vs experimental group with no treatment

For `CC1(C)C[C@H]2C3=CCC4[C@@]5(C)CC[C@H](O)[C@](C)(CO)C5CC[C@@]4(C)[C@]3(C)C[C@@H](O)[C@@]2(COCc2cn(-c3ccc(C(=O)O)cc3)nn2)[C@@H](O)[C@@H]1O` (some centres unmarked) [compound of the invention], the “effect on measured parameters (thigh circumference, EDL and SOL muscle weight, femoral bone length)” value ([1]; AVF rats) was “reduction of the measured parameters to a very significant extent”, the “reduction of EDL muscle weight” value [1, 6] was “approx. 59.2%” and the “reduction of SOL muscle weight” value [1, 6] was “approx. 63.6%”. The “reduction of thigh circumference” value [1, 6] was “approx. 12.5%”, the “TNF-α-induced endothelial cells permeability” value [2] was “significantly decreased” and the “influence on blood serum parameters (GLUC, CREA, UREA, TP, UA, AMYL, ALB, CHOL, TRIG, LIP, AST, ALT, CK)” value [3] was “no significant influence”. The “influence on measured parameters (thigh circumference, EDL and SOL muscle weight, femoral bone length)” value [4] was “insignificant influence” and the TNF-α-induced cell migration [5] was “reduced”.
